Assay results published in patent US12441768B2, “Compositions and methods for treating endometriosis” (EndoMet Biosciences, Inc., priority 2018, dated 2025).
Where a SMILES comes first, the peptide text is derived from it.

Target: T1, β-catenin (Homo sapiens, UniProt P35222)
T1 sequence (P35222 1-781): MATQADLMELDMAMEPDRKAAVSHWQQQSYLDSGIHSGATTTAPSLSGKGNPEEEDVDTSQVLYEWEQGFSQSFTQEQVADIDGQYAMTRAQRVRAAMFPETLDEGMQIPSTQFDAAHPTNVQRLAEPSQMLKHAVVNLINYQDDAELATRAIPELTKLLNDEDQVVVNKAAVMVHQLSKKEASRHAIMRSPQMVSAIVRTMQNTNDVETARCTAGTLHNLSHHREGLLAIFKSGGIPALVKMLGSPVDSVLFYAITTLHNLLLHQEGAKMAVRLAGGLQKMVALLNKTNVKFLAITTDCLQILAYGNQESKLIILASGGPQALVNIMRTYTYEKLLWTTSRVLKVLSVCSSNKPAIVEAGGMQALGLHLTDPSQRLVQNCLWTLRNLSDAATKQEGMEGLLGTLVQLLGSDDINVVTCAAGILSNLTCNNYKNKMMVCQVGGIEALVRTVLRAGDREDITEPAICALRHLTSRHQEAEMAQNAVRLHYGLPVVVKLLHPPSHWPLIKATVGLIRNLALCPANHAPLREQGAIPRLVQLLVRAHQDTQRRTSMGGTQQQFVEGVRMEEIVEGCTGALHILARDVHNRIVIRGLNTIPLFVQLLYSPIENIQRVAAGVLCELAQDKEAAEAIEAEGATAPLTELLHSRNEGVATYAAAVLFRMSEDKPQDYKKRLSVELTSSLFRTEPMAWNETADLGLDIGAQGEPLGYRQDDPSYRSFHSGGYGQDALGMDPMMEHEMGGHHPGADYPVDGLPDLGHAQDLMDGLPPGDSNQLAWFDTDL
Assay: KD50 measurement using competitive fluorescence polarization (FP) with labelled TCF4
Type: binding
Conditions: fluorescence polarization, β-catenin; for Kd: read-out: β-Cat FP KD
In short: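 Each compound competes against labelled TCF4 (5 nM) for 100 nM β-catenin at room temperature, tested over 10 nM to 30 uM. Signal: polarization at 470/520 nm excitation/emission. Three repeat experiments were performed.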

β-Cat FP Hill slope	Kd [nM]	Compound
0.7	–	CC[C@H](C)[C@@H]1NC(=O)[C@@H](NC(=O)[C@H](CCC(N)=O)NC(=O)[C@H](C)N(C)C(=O)[C@H](Cc2c[nH]c3ccccc23)NC(C)=O)CCCCNC(=O)CC[C@@H](C(=O)N[C@@H](Cc2c[nH]cn2)C(=O)N[C@H](C(=O)N[C@H]2CCC(=O)NCCCC[C@@H](C(N)=O)NC(=O)[C@H](Cc3c[nH]c4ccccc34)NC(=O)[C@H](C(C)C)NC(=O)[C@H](CC(=O)O)NC2=O)C2CCCCC2)NC(=O)[C@H](CC(=O)O)NC(=O)[C@H](CC(C)C)NC1=O [compound 464] (HELM PEPTIDE1{[ac].W.[meA].Q.K.I.L.D.E.H.[O=C([C@@H](N[*:1])C1CCCCC1)[*:2]].E.D.V.W.K.[am]}$PEPTIDE1,PEPTIDE1,5:R3-9:R3|PEPTIDE1,PEPTIDE1,12:R3-16:R3$$$V2.0; bridges inferred)
0.72	< 400	CC[C@H](C)[C@H](NC(=O)[C@H](CO)NC(=O)[C@H](CCC(N)=O)NC(=O)[C@H](C)N(C)C(=O)[C@H](Cc1c[nH]c2ccccc12)NC(C)=O)C(=O)N[C@@H](CC(C)C)C(=O)N[C@@H](CC(=O)O)C(=O)N[C@H]1CCC(=O)NCCCC[C@@H](C(=O)N[C@H](C(=O)N[C@@H](Cc2c[nH]c3ccccc23)C(N)=O)C(C)C)NC(=O)[C@H](CCC(N)=O)NC(=O)[C@H](C2CCCCC2)NC(=O)[C@H](Cc2c[nH]cn2)NC1=O [compound 466] (HELM PEPTIDE1{[ac].W.[meA].Q.S.I.L.D.E.H.[O=C([C@@H](N[*:1])C1CCCCC1)[*:2]].Q.K.V.W.[am]}$PEPTIDE1,PEPTIDE1,9:R3-13:R3$$$V2.0)
–	< 400	CCCCCCCCCCCC(=O)N[C@@H](Cc1c[nH]c2ccccc12)C(=O)N1CCC[C@H]1C(=O)N[C@@H](CCC(N)=O)C(=O)N[C@@H](CO)C(=O)N[C@H](C(=O)N[C@@H](CC(C)C)C(=O)N[C@@H](CC(=O)O)C(=O)N[C@H]1CCC(=O)NCCCC[C@@H](C(=O)N[C@H](C(=O)N[C@@H](Cc2c[nH]c3ccccc23)C(N)=O)C(C)C)NC(=O)[C@H](CCC(N)=O)NC(=O)[C@H](C2CCCCC2)NC(=O)[C@H](Cc2c[nH]cn2)NC1=O)[C@@H](C)CC [compound 469] (HELM PEPTIDE1{[CCCCCCCCCCCC(=O)[*:2]].W.P.Q.S.I.L.D.E.H.[O=C([C@@H](N[*:1])C1CCCCC1)[*:2]].Q.K.V.W.[am]}$PEPTIDE1,PEPTIDE1,9:R3-13:R3$$$V2.0)

The next lines start with the molecule.

Compound	β-Cat FP Hill slope	Kd [nM]
CCCCCCCCCCCC(=O)N[C@@H](Cc1c[nH]c2ccccc12)C(=O)N(C)[C@@H](C)C(=O)N[C@@H](CCC(N)=O)C(=O)N[C@@H](CO)C(=O)N[C@H](C(=O)N[C@@H](CC(C)C)C(=O)N[C@@H](CC(=O)O)C(=O)N[C@H]1CCC(=O)NCCCC[C@@H](C(=O)N[C@H](C(=O)N[C@@H](Cc2c[nH]c3ccccc23)C(N)=O)C(C)C)NC(=O)[C@H](CCC(N)=O)NC(=O)[C@H](C2CCCCC2)NC(=O)[C@H](Cc2c[nH]cn2)NC1=O)[C@@H](C)CC [compound 467] (HELM PEPTIDE1{[CCCCCCCCCCCC(=O)[*:2]].W.[meA].Q.S.I.L.D.E.H.[O=C([C@@H](N[*:1])C1CCCCC1)[*:2]].Q.K.V.W.[am]}$PEPTIDE1,PEPTIDE1,9:R3-13:R3$$$V2.0)	–	< 400
CC[C@H](C)[C@H](NC(=O)[C@H](CO)NC(=O)[C@H](CCC(N)=O)NC(=O)[C@@H]1CCCN1C(=O)[C@H](Cc1c[nH]c2ccccc12)NC(C)=O)C(=O)N[C@@H](CC(C)C)C(=O)N[C@@H](CC(=O)O)C(=O)N[C@H]1CCC(=O)NCCCC[C@@H](C(=O)N[C@H](C(=O)N[C@@H](Cc2c[nH]c3ccccc23)C(N)=O)C(C)C)NC(=O)[C@H](CCC(N)=O)NC(=O)[C@H](C2CCCCC2)NC(=O)[C@H](Cc2c[nH]cn2)NC1=O [compound 468] (HELM PEPTIDE1{[ac].W.P.Q.S.I.L.D.E.H.[O=C([C@@H](N[*:1])C1CCCCC1)[*:2]].Q.K.V.W.[am]}$PEPTIDE1,PEPTIDE1,9:R3-13:R3$$$V2.0)	0.86	< 400
